# From patent US20050020542A1, “Method of modulating sodium ion absorption in epithelial cells” (priority 2001, published 2005)
# “Also recorded” adds a separate entry of the source.
# Experiments:
# [1] = system: calcium-activated Cl- channel; assay: Perforated patch whole cell recording of Cl- current; assay type: cell-based, human
# Procedure: In FIGS. 4A and 4B, the response to 10 μM INO-E2 is contrasted with the response to ATP.
# [2] = system: Ca2+ activated Cl- secretion; assay: ATP-stimulated Cl- secretion after amiloride in Ussing chambers; assay type: cell-based, human; conditions: repeated exposure 1-2.5 μM over 96 hours, then amiloride, then apical ATP
# Procedure: FIG. 3 is a graph showing the effect of repeated exposure to INO-E2 on physiological parameters in CFHNE. 2.5 μM INO-E2 was added every 24 hrs for 4 days. Effects on Isc in CFHNE, passage 2 are depicted. Every 24 hrs medium in the basolateral compartment was exchanged with fresh medium containing 2.5 μM INO-E2. On the 4th day the monolayers were mounted in Ussing chambers and basal Isc, conductance and resistance measured. After a stable baseline was reached, amiloride was added to determine the amiloride-inhibitable-Isc. Under these conditions, subsequent apical addition of the Ca^2+-mobilizing agent, ATP, allows Cl^− secretion to be examined in isolation.
# The therapeutic potential of INO-E2 was investigated by using protocols that model in vivo treatments. In this experiment the effects of repeated exposure to a low dose of INO-E2 (2.5 μM) on basal Isc and responsiveness to calcium-mobilizing agonists (ATP) in human nasal CF epithelia (CFHNE) was tested. […] T here was no apparent difference in responses to compound added to the apical or basolateral compartment. This series of experiments provides information that useful for deriving the optimal therapeutic dose and delivery schedule for in vivo tests.
smiles,measurement,setting,value
"CCCCCCCCOC1C(OC(=O)CCC)C(OP(=O)(OCOC(=O)CC)OCOC(=O)CC)C(OP(=O)(OCOC(=O)CC)OCOC(=O)CC)C(OP(=O)(OCOC(=O)CC)OCOC(=O)CC)C1OP(=O)(OCOC(=O)CC)OCOC(=O)CC (stereo not drawn) [INO-E2, 2-O-butyryl-1-O-octyl-myo-inositol 3,4,5,6-tetrakisphosphate octakis (propionoxymethyl) ester]",time to appearance of Cl- currents after addition,"[1]; 10 μM, CFHNE cell, perforated patch",5 to 15 min
same,increase in chloride current,"[1]; 5 and 10 μM, other perforated patch recordings, data not shown",low to intermediate increase
same,response to ATP (Ca2+ activated Cl- secretion) in treated monolayers,[2],augments subsequent stimulation of Ca^2+ activated Cl^− secretion; also recorded: elevated
